Test results as given in ChEMBL document CHEMBL5653627 (J Neurochem, 2017).

How the values were obtained:
Type in all cases: functional
SMA-560 [1] = assay: Induction of apoptosis in mouse SMA-560 cells assessed as late apoptotic cells incubated for 72 hrs by Annexin V-FITC/PI staining based flow cytometric analysis (reference value: 1.83%)
SMA-560 [2] = assay: Induction of apoptosis in mouse SMA-560 cells assessed as early apoptotic cells incubated for 72 hrs by Annexin V-FITC/PI staining based flow cytometric analysis (reference value: 0.0056%)
SMA-560 [3] = assay: Induction of apoptosis in mouse SMA-560 cells assessed as live cells incubated for 72 hrs by Annexin V-FITC/PI staining based flow cytometric analysis (reference value: 84.6%)

CN[C@@H]1C[C@H]2O[C@@](C)([C@@H]1OC)n1c3ccccc3c3c4c(c5c6ccccc6n2c5c31)C(=O)NC4 [STAUROSPORINE]
Activity (SMA-560 [1]): 87.7%
Activity (SMA-560 [2]): 0%
Activity (SMA-560 [3]): 1.29%
